Results reported in patent US20010044425A1, “Compositions useful in the treatment of diseases of connective tissues” (priority 2000, published 2001).
Entries after “also recorded” stand apart in the source; their conditions may differ. Where two headings read alike, the source gives them in different places.

Tested on: cartilage precursor cells from the developing limb bud of normal chick embryos
Experiment: Cartilage development in micromass cultures of cartilage precursor cells
Format: cell-based
[1] = varying doses of the salt added to basic culture medium (about 0.6 μg/ml ferrous sulphate, about 75 μg/ml ascorbic acid) vs control group without addition, FIG. 2, FIG. 4

Molecule | cartilage development (amount of cartilage produced) | further results
O=C1O[C@H]([C@@H](O)CO)C(O)=C1O [ascorbic acid] | – | cartilage development (amount of cartilage produced) (ascorbic acid 75 or 150 μg/ml added vs control with no ascorbic acid added, FIG. 1): significantly enhances cartilage development in a dose-dependent manner
O=S(=O)([O-])[O-].[Co+2] [cobalt (II) sulphate] | No statistically significant increase in cartilage development; also recorded: significantly reduce the amount of cartilage produced in a dose-dependent manner | –
O=S(=O)([O-])[O-].O=S(=O)([O-])[O-].O=S(=O)([O-])[O-].[Fe+3].[Fe+3] [ferric sulphate] | no statistically significant difference | –
O=C([O-])/C=C/C(=O)[O-].[Fe+2] [ferrous fumarate] | – | cartilage development (amount of cartilage produced) [1]: significantly enhanced cartilage production
O=S(=O)([O-])[O-].[Fe+2] [ferrous sulphate] | significantly enhanced cartilage development in a dose-dependent manner | cartilage production when combined with ascorbic acid: significantly enhanced the cartilage production
O=S(=O)([O-])[O-].[K+].[K+] [potassium sulphate] | No statistically significant increase in cartilage development | –
O=S(=O)([O-])[O-].[Zn+2] [zinc sulphate] | no statistically significant increase in cartilage development | –
ferrous ascorbate | – | cartilage development (amount of cartilage produced) [1]: significantly enhanced cartilage production
